Target: PI3K delta (Homo sapiens, UniProt O00329)
Assay: Luciferase-coupled chemiluminescence kinase assay (ATP consumption, KinaseGlo)
Type: biochemical
Experimental: Kinase activity and compound inhibition were investigated using one or more of the assay formats described below. The ATP concentrations used in the various assays were approximately equal to or less than the KM for each of the respective kinases. Dose-response experiments were performed using an intra-plate dilution scheme with 10 different inhibitor concentrations in a 384-well microtiter plate. IC50 values were calculated by nonlinear regression analysis using the four-parameter equation listed below:
Y=min+(max−min)/(1+(X/IC50)^N) Equation 1
Typically N should approximate unity. Curve fitting was performed using XLFit or ActivityBase.
Kinase activity is measured as the percent of ATP consumed following the kinase reaction using luciferase-luciferin-coupled chemiluminescence. […] Kinase reactions were initiated by combining test compounds, kinase, and ATP in a 20 μL volume (6 μL volume for 1536-well plate). The reaction mixture was incubated at ambient temperature for 2 h. Following the kinase reaction, a 20 μL (or […] for 1536-well plate) aliquot of KinaseGlo (Promega) was added and the chemiluminescence signal measured using an EnVision plate reader (Perkin Elmer).

Sequence of PI3K delta (O00329 whole entry): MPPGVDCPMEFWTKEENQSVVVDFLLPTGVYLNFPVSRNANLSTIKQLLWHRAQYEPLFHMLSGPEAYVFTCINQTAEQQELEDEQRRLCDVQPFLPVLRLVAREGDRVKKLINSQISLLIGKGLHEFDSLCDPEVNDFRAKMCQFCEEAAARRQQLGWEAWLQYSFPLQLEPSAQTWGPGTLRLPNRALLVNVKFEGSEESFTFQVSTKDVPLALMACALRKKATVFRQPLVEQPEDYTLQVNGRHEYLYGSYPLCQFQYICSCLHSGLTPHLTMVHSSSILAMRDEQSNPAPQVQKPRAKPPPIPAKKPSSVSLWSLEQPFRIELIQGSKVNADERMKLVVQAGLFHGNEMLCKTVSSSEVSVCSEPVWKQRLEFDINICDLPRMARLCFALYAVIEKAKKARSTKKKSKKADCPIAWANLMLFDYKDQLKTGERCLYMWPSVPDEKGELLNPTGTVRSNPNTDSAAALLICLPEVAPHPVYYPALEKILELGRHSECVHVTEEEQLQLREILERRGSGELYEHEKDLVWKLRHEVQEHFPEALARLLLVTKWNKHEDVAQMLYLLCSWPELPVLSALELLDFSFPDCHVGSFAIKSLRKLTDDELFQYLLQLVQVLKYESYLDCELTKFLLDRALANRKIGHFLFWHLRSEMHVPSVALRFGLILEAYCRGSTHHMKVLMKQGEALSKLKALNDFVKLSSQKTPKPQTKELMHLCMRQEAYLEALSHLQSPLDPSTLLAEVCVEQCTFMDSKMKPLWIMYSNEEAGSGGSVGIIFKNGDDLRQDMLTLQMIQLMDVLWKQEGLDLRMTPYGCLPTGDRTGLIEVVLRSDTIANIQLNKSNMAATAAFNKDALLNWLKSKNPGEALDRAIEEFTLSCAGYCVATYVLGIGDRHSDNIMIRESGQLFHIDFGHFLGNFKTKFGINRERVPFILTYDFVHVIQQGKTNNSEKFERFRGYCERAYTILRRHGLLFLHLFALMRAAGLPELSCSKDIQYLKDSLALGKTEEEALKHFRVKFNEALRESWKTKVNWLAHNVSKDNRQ
Sequence of PI3K delta (P27986 whole entry partner): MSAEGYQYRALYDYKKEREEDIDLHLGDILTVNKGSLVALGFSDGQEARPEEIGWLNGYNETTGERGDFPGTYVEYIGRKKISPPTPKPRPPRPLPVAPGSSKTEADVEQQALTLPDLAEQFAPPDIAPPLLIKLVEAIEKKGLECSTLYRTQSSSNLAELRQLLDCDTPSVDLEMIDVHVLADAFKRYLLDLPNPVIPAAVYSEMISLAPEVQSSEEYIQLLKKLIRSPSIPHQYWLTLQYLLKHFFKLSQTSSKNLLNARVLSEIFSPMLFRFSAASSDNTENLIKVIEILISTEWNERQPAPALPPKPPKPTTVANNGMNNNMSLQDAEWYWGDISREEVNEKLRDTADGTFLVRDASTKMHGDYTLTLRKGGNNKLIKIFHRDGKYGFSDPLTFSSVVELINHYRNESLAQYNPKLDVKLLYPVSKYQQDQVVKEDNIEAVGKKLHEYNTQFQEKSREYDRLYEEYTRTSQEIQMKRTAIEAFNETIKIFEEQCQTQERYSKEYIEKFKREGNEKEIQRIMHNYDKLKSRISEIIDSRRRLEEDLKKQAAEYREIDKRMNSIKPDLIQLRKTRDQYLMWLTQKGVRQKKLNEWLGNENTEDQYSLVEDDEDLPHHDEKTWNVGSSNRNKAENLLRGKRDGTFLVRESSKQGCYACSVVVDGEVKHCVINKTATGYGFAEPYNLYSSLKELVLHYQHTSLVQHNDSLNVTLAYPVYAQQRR

IC50 [µM] | Structure (SMILES)
0.5 to 1.5 | Cn1c(C(=O)NCCCc2ccccc2)nc2c(N3CCC(n4c(=O)[nH]c5ccccc54)CC3)ncnc21 [Compound 65, 9-methyl-6-[4-(2-oxo-2,3-dihydro-1H-benzimidazol-1-yl)piperidin-1-yl]-N-(3-phenylpropyl)-9H-purine-8-carboxamide]
0.5 to 1.5 | Cn1c(C(=O)NCc2ccc(F)cc2F)nc2c(N3CCC(n4c(=O)[nH]c5ccccc54)CC3)ncnc21 [Compound 66, N-[(2,4-difluorophenyl)methyl]-9-methyl-6-[4-(2-oxo-2,3-dihydro-1H-benzimidazol-1-yl)piperidin-1-yl]-9H-purine-8-carboxamide]
< 0.05 | CC(C)CNC(=O)c1nc2c(N3CCC(n4c(=O)[nH]c5ccccc54)CC3)ncnc2n1C [Compound 67, 9-methyl-N-(2-methylpropyl)-6-[4-(2-oxo-2,3-dihydro-1H-benzimidazol-1-yl)piperidin-1-yl]-9H-purine-8-carboxamide]
0.25 to 0.5 | Cn1c(C(=O)N2CCCC2)nc2c(N3CCC(n4c(=O)[nH]c5ccccc54)CC3)ncnc21 [Compound 68, 1-{1-[9-methyl-8-(pyrrolidin-1-ylcarbonyl)-9H-purin-6-yl]piperidin-4-yl}-1,3-dihydro-2H-benzimidazol-2-one]
0.05 to 0.25 | CCCNC(=O)c1nc2c(N3CCC(n4c(=O)[nH]c5ccccc54)CC3)ncnc2n1C [Compound 69, 9-methyl-6-[4-(2-oxo-2,3-dihydro-1H-benzimidazol-1-yl)piperidin-1-yl]-N-propyl-9H-purine-8-carboxamide]
0.25 to 0.5 | CCCCCNC(=O)c1nc2c(N3CCC(n4c(=O)[nH]c5ccccc54)CC3)ncnc2n1C [Compound 70, 9-methyl-6-[4-(2-oxo-2,3-dihydro-1H-benzimidazol-1-yl)piperidin-1-yl]-N-pentyl-9H-purine-8-carboxamide]
0.25 to 0.5 | CCCCCCNC(=O)c1nc2c(N3CCC(n4c(=O)[nH]c5ccccc54)CC3)ncnc2n1C [Compound 71, N-hexyl-9-methyl-6-[4-(2-oxo-2,3-dihydro-1H-benzimidazol-1-yl)piperidin-1-yl]-9H-purine-8-carboxamide]
0.05 to 0.25 | CC(C)CCNC(=O)c1nc2c(N3CCC(n4c(=O)[nH]c5ccccc54)CC3)ncnc2n1C [Compound 72, 9-methyl-N-(3-methylbutyl)-6-[4-(2-oxo-2,3-dihydro-1H-benzimidazol-1-yl)piperidin-1-yl]-9H-purine-8-carboxamide]
0.05 to 0.25 | Cn1c(C(=O)N2CC(O)C2)nc2c(N3CCC(n4c(=O)[nH]c5ccccc54)CC3)ncnc21 [Compound 74, 1-(1-{8-[(3-hydroxyazetidin-1-yl)carbonyl]-9-methyl-9H-purin-6-yl}piperidin-4-yl)-1,3-dihydro-2H-benzimidazol-2-one]
0.5 to 1.5 | COC(=O)c1nc2c(N3CCC4(CC3)C(=O)Nc3ccccc34)ncnc2n1C [Compound 76, Methyl 9-methyl-6-(2-oxo-1,2-dihydro-1′H-spiro[indole-3,4′-piperidin]-1′-yl)-9H-purine-8-carboxylate]
0.5 to 1.5 | COC(=O)c1nc2c(N3CCC(n4c(=O)[nH]c5ccccc54)CC3)ncnc2n1C [Compound 78, Methyl 9-methyl-6-[4-(2-oxo-2,3-dihydro-1H-benzimidazol-1-yl)piperidin-1-yl]-9H-purine-8-carboxylate]
0.5 to 1.5 | CCOC(=O)c1nc2c(N3CCC(n4c(=O)[nH]c5ccccc54)CC3)ncnc2n1C [Compound 80, Ethyl 9-methyl-6-[4-(2-oxo-2,3-dihydro-1H-benzimidazol-1-yl)piperidin-1-yl]-9H-purine-8-carboxylate]
0.5 to 1.5 | Cc1nc2c(N3CCC(n4c(=O)[nH]c5ccccc54)CC3)ncnc2n1C [Compound 81, 1-[1-(8,9-Dimethyl-9H-purin-6-yl)piperidin-4-yl]-1,3-dihydro-2H-benzimidazol-2-one]
0.05 to 0.25 | Cn1c(C(=O)NCC(C)(C)O)nc2c(N3CCC4(CC3)C(=O)Nc3ccccc34)ncnc21 [Compound 83, N-(2-hydroxy-2-methylpropyl)-9-methyl-6-(2-oxo-1,2-dihydro-1′H-spiro[indole-3,4′-piperidin]-1′-yl)-9H-purine-8-carboxamide]
0.05 to 0.25 | Cn1c(C(=O)NCC2CCC2)nc2c(N3CCC4(CC3)C(=O)Nc3ccccc34)ncnc21 [Compound 89, N-(cyclobutylmethyl)-9-methyl-6-(2-oxo-1,2-dihydro-1′H-spiro[indole-3,4′-piperidin]-1′-yl)-9H-purine-8-carboxamide]
0.5 to 1.5 | CCc1nc2c(N3CCC(n4c(=O)[nH]c5ccccc54)CC3)ncnc2n1C [Compound 92, 1-[1-(8-ethyl-9-methyl-9H-purin-6-yl)piperidin-4-yl]-1,3-dihydro-2H-benzimidazol-2-one]
0.5 to 1.5 | CCCCc1nc2c(N3CCC(n4c(=O)[nH]c5ccccc54)CC3)ncnc2n1C [Compound 93, 1-[1-(8-butyl-9-methyl-9H-purin-6-yl)piperidin-4-yl]-1,3-dihydro-2H-benzimidazol-2-one]
0.5 to 1.5 | CON(C)C(=O)c1nc2c(N3CCC(n4c(=O)[nH]c5ccccc54)CC3)ncnc2n1C [Compound 94, N,9-dimethyl-N-(methyloxy)-6-[4-(2-oxo-2,3-dihydro-1H-benzimidazol-1-yl)piperidin-1-yl]-9H-purine-8-carboxamide]

Continued, molecule first:

Structure (SMILES) | IC50 [µM]
Cn1c(C(=O)N2CCC(O)C2)nc2c(N3CCC(n4c(=O)[nH]c5ccccc54)CC3)ncnc21 (centres unmarked) [Compound 73, 1-(1-[8-[(3-hydroxypyrrolidin-1-yl)carbonyl]-9-methyl-9H-purin-6-yl]piperidin-4-yl)-1,3-dihydro-2H-benzimidazol-2-one] | 0.5 to 1.5
Cn1c(C(=O)NC(C)(C)C)nc2c(N3CCC4(CC3)C(=O)Nc3ccccc34)ncnc21 [Compound 75, N-(1,1-dimethylethyl)-9-methyl-6-(2-oxo-1,2-dihydro-1′H-spiro[indole-3,4′-piperidin]-1′-yl)-9H-purine-8-carboxamide] | 0.05 to 0.25
Cn1c(C(=O)NCC2CCOCC2)nc2c(N3CCC4(CC3)C(=O)Nc3ccccc34)ncnc21 [Compound 77, 9-methyl-6-(2-oxo-1,2-dihydro-1′H-spiro[indole-3,4′-piperidin]-1′-yl)-N-(tetrahydro-2H-pyran-4-ylmethyl)-9H-purine-8-carboxamide] | 0.05 to 0.25
Cn1c(C(=O)OCC2CC2)nc2c(N3CCC(n4c(=O)[nH]c5ccccc54)CC3)ncnc21 [Compound 79, Cyclopropylmethyl 9-methyl-6-[4-(2-oxo-2,3-dihydro-1H-benzimidazol-1-yl)piperidin-1-yl]-9H-purine-8-carboxylate] | 0.05 to 0.25
Cn1c(C(=O)NCC2CCCCO2)nc2c(N3CCC4(CC3)C(=O)Nc3ccccc34)ncnc21 (centres unmarked) [Compound 82, 9-methyl-6-(2-oxo-1,2-dihydro-1′H-spiro[indole-3,4′-piperidin]-1′-yl)-N-(tetrahydro-2H-pyran-2-ylmethyl)-9H-purine-8-carboxamide] | 0.5 to 1.5
CC(NC(=O)c1nc2c(N3CCC4(CC3)C(=O)Nc3ccccc34)ncnc2n1C)C1CC1 (centres unmarked) [Compound 84, N-(1-cyclopropylethyl)-9-methyl-6-(2-oxo-1,2-dihydro-1′H-spiro[indole-3,4′-piperidin]-1′-yl)-9H-purine-8-carboxamide] | 0.05 to 0.25
Cn1c(C(=O)NCC2CCCO2)nc2c(N3CCC4(CC3)C(=O)Nc3ccccc34)ncnc21 (centres unmarked) [Compound 85, 9-methyl-6-(2-oxo-1,2-dihydro-1′H-spiro[indole-3,4′-piperidin]-1′-yl)-N-(tetrahydrofuran-2-ylmethyl)-9H-purine-8-carboxamide] | 0.5 to 1.5
Cn1c(C(=O)NC2CCOCC2)nc2c(N3CCC4(CC3)C(=O)Nc3ccccc34)ncnc21 [Compound 86, 9-methyl-6-(2-oxo-1,2-dihydro-1′H-spiro[indole-3,4′-piperidin]-1′-yl)-N-(tetrahydro-2H-pyran-4-yl)-9H-purine-8-carboxamide] | 0.05 to 0.25
Cn1c(C(=O)N[C@H]2CC[C@H](O)CC2)nc2c(N3CCC4(CC3)C(=O)Nc3ccccc34)ncnc21 [Compound 87, N-(trans-4-hydroxycyclohexyl)-9-methyl-6-(2-oxo-1,2-dihydro-1′H-spiro[indole-3,4′-piperidin]-1′-yl)-9H-purine-8-carboxamide] | < 0.05
Cn1c(C(=O)NCC2CCCCC2)nc2c(N3CCC4(CC3)C(=O)Nc3ccccc34)ncnc21 [Compound 88, N-(cyclohexylmethyl)-9-methyl-6-(2-oxo-1,2-dihydro-1′H-spiro[indole-3,4′-piperidin]-1′-yl)-9H-purine-8-carboxamide] | 0.5 to 1.5
Cn1c(C(=O)N2CCC2)nc2c(N3CCC4(CC3)C(=O)Nc3ccccc34)ncnc21 [Compound 90, 1′-[8-(azetidin-1-ylcarbonyl)-9-methyl-9H-purin-6-yl]spiro[indole-3,4′-piperidin]-2(1H)-one] | 0.25 to 0.5
CNC(=O)c1nc2c(N3CCC(n4c(=O)[nH]c5ccccc54)CC3)ncnc2n1C [Compound 91, N,9-dimethyl-6-[4-(2-oxo-2,3-dihydro-1H-benzimidazol-1-yl)piperidin-1-yl]-9H-purine-8-carboxamide] | 0.5 to 1.5
CC(=O)c1nc2c(N3CCC(n4c(=O)[nH]c5ccccc54)CC3)ncnc2n1C [Compound 95, 1-[1-(8-Acetyl-9-methyl-9H-purin-6-yl)piperidin-4-yl]-1,3-dihydro-2H-benzimidazol-2-one] | 0.25 to 0.5
Cn1c(C(=O)NCC(C)(C)C)nc2c(N3CCC4(CC3)C(=O)Nc3ccccc34)ncnc21 [Compound 96, N-(2,2-dimethylpropyl)-9-methyl-6-(2-oxo-1,2-dihydro-1′H-spiro[indole-3,4′-piperidin]-1′-yl)-9H-purine-8-carboxamide] | 0.05 to 0.25

From US20140058103A1, “Inhibitors of PI3K-Delta and Methods of Their Use and Manufacture” (Exelixis, Inc., priority 2010, published 2014)
